In patent US20050113286A1, “Methods for treating congestive heart failure” (priority 2002, published 2005):

How the values were obtained:
[1] = test system: patients with chronic decompensated HF; assay: FUSION I: clinical outcomes (death, hospitalization, days alive and out of hospital) through 12 weeks; assay type: in vivo, human
Method: In this multicenter, open-label, pilot study, patients were randomly assigned to 1 of 3 treatment groups in a 1:1:1 ratio: (1) usual care, as determined by the investigating physician; (2) usual care plus nesiritide 0.005 μg/kg/min given for 4 to 6 hours, preceded by a 1.0-μg/kg bolus; or (3) usual care plus nesiritide 0.01 μg/kg/min given for 4 to 6 hours, preceded by a 2.0-μg/kg bolus (FIG. 1). The study treatment period was 12 weeks with an additional 4 weeks of follow-up. Nesiritide (Natrecor®) was supplied by Scios Inc., Fremont, Calif. Informed consent was obtained from each patient prior to enrollment, and the Ethics Committee of each institution prospectively approved the study.
The primary goal of this open-label study was to assess the safety and tolerability of different nesiritide doses administered as serial outpatient infusions. Safety and tolerability were measured through investigator reporting of adverse events (AEs), serious AEs, discontinuations of study infusions, laboratory assessments, and vital signs. An AE was defined as any new onset or worsening of any medical condition since study entry. A serious AE were those AEs, which lead to death, hospitalization, or prolonged hospitalization. The effect of nesiritide infusions on renal function was also monitored as a safety variable, with renal AEs defined as increased blood urea nitrogen (BUN) or serum creatinine levels (determined by investigator's discretion), onset of oliguria, or occurrence of acute renal failure. Clinical events were followed to further evaluate safety and tolerability.
To characterize treatment groups with respect to known prognostic factors for hospitalization or death, patients were prospectively stratified using a Risk Assessment Score (RAS). Two levels of risk were defined: patients with an RAS≧4 (i.e., with 4 or more of the 7 risk factors) and patients with an RAS<4. Risk factors utilized were: (1) serum creatinine of >2.0 mg/dl in the preceding 30 days; (2) NYHA class IV for the preceding 60 days; (3)≧65 years old; (4) history of sustained ventricular tachycardia; (5) ischemic etiology of HF; (6) diabetes; and (7) outpatient use of nesiritide or inotropic agents in preceding 6 months.
The effect of treatment was assessed with a 2-way ANOVA, an F test, a stratified Wilcoxon test, a Wilcoxon test, or the generalized Fisher's exact test, depending on the distribution of the variable. Kaplan-Meier estimates of the survival curves for morbidity/mortality time-to-event data were calculated. A log-rank or stratified log-rank test was used for comparisons between 2 treatment groups.

[2] = test system: acute decompensated heart failure; conditions: compared with milrinone; cited from earlier work
[3] = test system: patients with chronic decompensated HF; assay: FUSION I: left ventricular ejection fraction by echocardiography; assay type: in vivo, human
Excerpt: Surrogate measures with mechanistic implications included measures of serum aldosterone, serum endothelin-1, and serial measurements of ventricular function using ejection fractions derived from echocardiography. Pre-infusion aldosterone and endothelin-1 concentrations were collected and analyzed at a core lab (The Mayo Clinic, Rochester, Minn.) at weeks 1, 4, 8, and 12; post-infusion concentrations were collected at weeks 1 and 12. Left ventricular ejection fractions were serially measured and read at a core lab (Midwest Heart Foundation Echocardiographic Core Laboratory, Lombard, Ill.).

[4] = RAS ≧4 patients, 0.005 μg/kg/min, n = 24, through 12 weeks
[5] = RAS ≧4 patients, 0.01 μg/kg/min, n = 20, through 12 weeks
[6] = RAS ≧4 patients, both nesiritide groups, n = 44, through 12 weeks
[7] = all patients, 0.005 μg/kg/min, n = 72, through 12 weeks
[8] = all patients, 0.01 μg/kg/min, n = 69, through 12 weeks
[9] = all patients, both nesiritide groups, n = 141, through 12 weeks
[10] = baseline NYHA class IV, 0.005 μg/kg/min, n = 25
[11] = baseline NYHA class IV, 0.01 μg/kg/min, n = 22
[12] = baseline NYHA class IV, both nesiritide groups, n = 47
[13] = baseline NYHA class IV, both nesiritide groups, n = 47, p = 0.148 compared with usual care
[14] = lowest serum creatinine >2.0 mg/dL during 30 days prior to the study, 0.005 μg/kg/min, n = 13
[15] = lowest serum creatinine >2.0 mg/dL during 30 days prior to the study, 0.01 μg/kg/min, n = 14
[16] = lowest serum creatinine >2.0 mg/dL during 30 days prior to the study, both nesiritide groups, n = 27
[17] = lowest serum creatinine >2.0 mg/dL during 30 days prior to the study, both nesiritide groups, n = 27, p = 0.176 compared with usual care

## Nesiritide: a recombinant form of human B-type natriuretic peptide (BNP)
[1]; NYHA class IV status
  Hospitalizations compared with usual care: trend towards a reduction
[1]; [4]
  All-cause death and hospitalization, % of patients: 42%
  All-cause death and hospitalization, number of patients: 10
  All-cause hospitalization, % of patients: 42%
  All-cause hospitalization, number of patients: 10
  Days alive and out of hospital, 25th percentile: 74.6 days
  Days alive and out of hospital, Mean ± SD: 76.3 ± 16.8 days
  Deaths, % of patients: 4%
  Deaths, number of patients: 1
[1]; [5]
  All-cause death and hospitalization, % of patients: 65%
  All-cause death and hospitalization, number of patients: 13
  All-cause hospitalization, % of patients: 60%
  All-cause hospitalization, number of patients: 12
  Days alive and out of hospital, 25th percentile: 75.3 days
  Days alive and out of hospital, Mean ± SD: 77.2 ± 14.0 days
  Deaths, % of patients: 5%
  Deaths, number of patients: 1
[1]; [6]
  All-cause death and hospitalization, % of patients: 52%
  All-cause death and hospitalization, number of patients: 23
  All-cause hospitalization, % of patients: 50%
  All-cause hospitalization, number of patients: 22
  Days alive and out of hospital, 25th percentile: 75.0 days
  Days alive and out of hospital, Mean ± SD: 76.7 ± 15.5 days
  Deaths, % of patients: 5%
  Deaths, number of patients: 2
[1]; RAS≧4 cohort, p=0.027
  Days alive and out of the hospital compared to the usual care group: statistically significant increase
[1]; RAS≧4 patients
  Deaths or hospitalizations compared with usual care only: statistically significantly fewer
[1]; [7]
  All-cause death and hospitalization, % of patients: 46%
  All-cause death and hospitalization, number of patients: 33
  All-cause hospitalization, % of patients: 44%
  All-cause hospitalization, number of patients: 32
  Days alive and out of hospital, 25th percentile: 74.2 days
  Days alive and out of hospital, Mean ± SD: 76.1 ± 15.3 days
  Deaths, % of patients: 8%
  Deaths, number of patients: 6
[1]; [8]
  All-cause death and hospitalization, % of patients: 49%
  All-cause death and hospitalization, number of patients: 34
  All-cause hospitalization, % of patients: 48%
  All-cause hospitalization, number of patients: 33
  Days alive and out of hospital, 25th percentile: 79.0 days
  Days alive and out of hospital, Mean ± SD: 78.9 ± 10.9 days
  Deaths, % of patients: 4%
  Deaths, number of patients: 3
[1]; [9]
  All-cause death and hospitalization, % of patients: 48%
  All-cause death and hospitalization, number of patients: 67
  All-cause hospitalization, % of patients: 46%
  All-cause hospitalization, number of patients: 65
  Days alive and out of hospital, 25th percentile: 77.6 days
  Days alive and out of hospital, Mean ± SD: 77.5 ± 13.3 days
  Deaths, % of patients: 6%
  Deaths, number of patients: 9
[1]; all patients, each nesiritide dose group and all nesiritide group
  Deaths or hospitalizations compared with usual-care group: no statistically significant differences
[1]; all patients, p=0.131
  Days alive and out of the hospital compared with usual-care patients: trends for increasing days alive and out of the hospital
[1]; [10]
  Days alive and out of hospital, Mean ± SD: 73.3 ± 18.4 days
  Days alive and out of hospital, Median: 84 days
  Patient deaths, %: 8%
  Patient deaths, number: 2
  Patients hospitalized, %: 48%
  Patients hospitalized, number: 12
[1]; [11]
  Days alive and out of hospital, Mean ± SD: 77.7 ± 13.5 days
  Days alive and out of hospital, Median: 82 days
  Patient deaths, %: 5%
  Patient deaths, number: 1
  Patients hospitalized, %: 55%
  Patients hospitalized, number: 12
[1]; [12]
  Days alive and out of hospital, Median: 83 days
  Patient deaths, %: 6%
  Patient deaths, number: 3
[1]; [13]
  Patients hospitalized, %: 51%
  Patients hospitalized, number: 24
[1]; baseline NYHA class IV, both nesiritide groups, n = 47, p = 0.182 compared with usual care
  Days alive and out of hospital, Mean ± SD: 75.4 ± 16.2 days
[1]; elevated serum creatinine, >2.0 mg/dL
  Days alive and out of hospital compared to usual care alone: statistically significant increase
[1]; [14]
  Days alive and out of hospital, Mean ± SD: 75.7 ± 19.0 days
  Days alive and out of hospital, Median: 84 days
  Patient deaths, %: 8%
  Patient deaths, number: 1
  Patients hospitalized, %: 46%
  Patients hospitalized, number: 6
[1]; [15]
  Days alive and out of hospital, Mean ± SD: 78.4 ± 9.0 days
  Days alive and out of hospital, Median: 81 days
  Patient deaths, %: 7%
  Patient deaths, number: 1
  Patients hospitalized, %: 57%
  Patients hospitalized, number: 8
[1]; [16]
  Days alive and out of hospital, Median: 81 days
  Patient deaths, %: 7%
  Patient deaths, number: 2
[1]; lowest serum creatinine >2.0 mg/dL during 30 days prior to the study, both nesiritide groups, n = 27, p = 0.019 compared with usual care
  Days alive and out of hospital, Mean ± SD: 77.1 ± 14.7 days
[1]; [17]
  Patients hospitalized, %: 52%
  Patients hospitalized, number: 14
[2]
  Length of stay: shorter length of stay
  Readmissions: fewer readmissions
[3]; 0.005-μg/kg/min
  Mean change in ejection fraction from baseline to week 12: +4.0±3.3%
[3]; 0.01-μg/kg/min, p=0.03 compared with the usual-care group
  Mean change in ejection fraction from baseline to week 12: +5.3±5.0%
